Test results reported in ChEMBL document CHEMBL4706583, “2-Anilinoquinoline based arylamides as broad spectrum anticancer agents with B-RAF/C-RAF kinase inhibitory effects: Design, synthesis, in vitro cell-based and oncogenic kinase assessments” (Eur J Med Chem, 2020).

Experiments:
RPMI-8226 = assay: Growth inhibition of human RPMI-8226 cells measured after 48 hrs by SRB assay; assay type: functional
HOP-92 = assay: Growth inhibition of human HOP-92 cells measured after 48 hrs by SRB assay; assay type: functional
HCT-116 = assay: Growth inhibition of human HCT-116 cells measured after 48 hrs by SRB assay; assay type: functional
SF-295 = assay: Growth inhibition of human SF-295 cells measured after 48 hrs by SRB assay; assay type: functional
SK-MEL-5 = assay: Growth inhibition of human SK-MEL-5 cells measured after 48 hrs by SRB assay; assay type: functional
OVCAR-4 = assay: Growth inhibition of human OVCAR-4 cells measured after 48 hrs by SRB assay; assay type: functional
A498 = assay: Growth inhibition of human A498 cells measured after 48 hrs by SRB assay; assay type: functional
PC-3 = assay: Growth inhibition of human PC-3 cells measured after 48 hrs by SRB assay; assay type: functional
BT-549 = assay: Growth inhibition of human BT-549 cells measured after 48 hrs by SRB assay; assay type: functional
[1] = target: Serine/threonine-protein kinase B-raf (Homo sapiens, UniProt P15056); assay: Inhibition of human BRAF at 10 uM using MEK1 (K97R) as substrate in presence of [gamma-33P]ATP by scintillation counting method relative to control
Chain of Serine/threonine-protein kinase B-raf (P15056 whole entry): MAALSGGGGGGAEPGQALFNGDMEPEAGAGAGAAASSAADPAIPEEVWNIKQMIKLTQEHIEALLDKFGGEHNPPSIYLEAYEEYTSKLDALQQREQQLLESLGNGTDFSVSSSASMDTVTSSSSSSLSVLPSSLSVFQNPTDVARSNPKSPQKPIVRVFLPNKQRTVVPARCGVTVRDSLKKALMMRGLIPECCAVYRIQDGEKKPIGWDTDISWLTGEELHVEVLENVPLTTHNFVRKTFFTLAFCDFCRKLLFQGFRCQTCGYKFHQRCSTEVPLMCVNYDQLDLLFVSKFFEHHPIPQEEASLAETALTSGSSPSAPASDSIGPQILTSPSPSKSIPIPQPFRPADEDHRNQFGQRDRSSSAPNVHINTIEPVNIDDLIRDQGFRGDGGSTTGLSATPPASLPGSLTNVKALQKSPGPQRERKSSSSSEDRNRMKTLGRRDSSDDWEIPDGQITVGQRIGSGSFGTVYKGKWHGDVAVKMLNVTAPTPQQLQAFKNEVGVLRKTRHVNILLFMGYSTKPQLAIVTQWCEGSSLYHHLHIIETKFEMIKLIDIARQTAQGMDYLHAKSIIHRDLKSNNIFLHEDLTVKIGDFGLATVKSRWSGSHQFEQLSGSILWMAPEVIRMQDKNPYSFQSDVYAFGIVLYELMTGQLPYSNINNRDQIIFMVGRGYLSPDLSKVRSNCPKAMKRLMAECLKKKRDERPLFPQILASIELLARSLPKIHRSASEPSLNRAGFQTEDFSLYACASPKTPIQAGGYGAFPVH

[2] = tested on: Serine/threonine-protein kinase B-raf (Homo sapiens), P15056 [V600E]; assay: Inhibition of human BRAF V600E mutant at 10 uM using MEK1 (K97R) as substrate in presence of [gamma-33P]ATP by scintillation counting method relative to control
Chain of Serine/threonine-protein kinase B-raf (Homo sapiens), P15056 [V600E] (P15056 whole entry V600E): as the sequence (P15056 whole entry) above, with V600E counted along it

[3] = target: RAF proto-oncogene serine/threonine-protein kinase (Homo sapiens, UniProt P04049); assay: Inhibition of human CRAF at 10 uM using MEK1 (K97R) as substrate in presence of [gamma-33P]ATP by scintillation counting method relative to control
Chain of RAF proto-oncogene serine/threonine-protein kinase (P04049 whole entry): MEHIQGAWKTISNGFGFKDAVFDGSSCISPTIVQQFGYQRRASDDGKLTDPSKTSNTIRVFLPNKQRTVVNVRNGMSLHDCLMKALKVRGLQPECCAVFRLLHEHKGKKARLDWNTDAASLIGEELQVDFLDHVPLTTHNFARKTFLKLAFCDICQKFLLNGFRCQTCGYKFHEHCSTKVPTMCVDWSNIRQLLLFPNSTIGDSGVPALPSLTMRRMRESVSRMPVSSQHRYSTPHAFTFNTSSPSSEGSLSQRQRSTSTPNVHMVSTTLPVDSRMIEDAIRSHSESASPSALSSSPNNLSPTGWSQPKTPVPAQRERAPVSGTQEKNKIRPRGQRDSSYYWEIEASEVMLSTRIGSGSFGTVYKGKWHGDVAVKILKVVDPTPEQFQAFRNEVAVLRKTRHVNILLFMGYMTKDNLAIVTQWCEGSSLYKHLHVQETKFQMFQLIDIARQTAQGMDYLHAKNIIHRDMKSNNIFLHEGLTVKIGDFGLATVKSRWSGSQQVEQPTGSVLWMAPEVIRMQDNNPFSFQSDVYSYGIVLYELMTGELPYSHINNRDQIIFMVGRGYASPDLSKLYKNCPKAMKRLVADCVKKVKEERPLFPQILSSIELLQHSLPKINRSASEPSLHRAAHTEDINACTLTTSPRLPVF

CCRF-CEM = assay: Growth inhibition of human CCRF-CEM cells measured after 48 hrs by SRB assay; assay type: functional
HL-60(TB) = assay: Growth inhibition of human HL-60(TB) cells measured after 48 hrs by SRB assay; assay type: functional
K562 = assay: Growth inhibition of human K562 cells measured after 48 hrs by SRB assay; assay type: functional
MOLT-4 = assay: Growth inhibition of human MOLT-4 cells measured after 48 hrs by SRB assay; assay type: functional
SR = assay: Growth inhibition of human SR cells measured after 48 hrs by SRB assay; assay type: functional
A549 = assay: Growth inhibition of human A549 cells measured after 48 hrs by SRB assay; assay type: functional
EKVX = assay: Growth inhibition of human EKVX cells measured after 48 hrs by SRB assay; assay type: functional
HOP-62 = assay: Growth inhibition of human HOP-62 cells measured after 48 hrs by SRB assay; assay type: functional
NCI-H226 = assay: Growth inhibition of human NCI-H226 cells measured after 48 hrs by SRB assay; assay type: functional
NCI-H23 = assay: Growth inhibition of human NCI-H23 cells measured after 48 hrs by SRB assay; assay type: functional
NCI-H322M = assay: Growth inhibition of human NCI-H322M cells measured after 48 hrs by SRB assay; assay type: functional
NCI-H460 = assay: Growth inhibition of human NCI-H460 cells measured after 48 hrs by SRB assay; assay type: functional
NCI-H522 = assay: Growth inhibition of human NCI-H522 cells measured after 48 hrs by SRB assay; assay type: functional
COLO 205 = assay: Growth inhibition of human COLO 205 cells measured after 48 hrs by SRB assay; assay type: functional
HCC 2998 = assay: Growth inhibition of human HCC 2998 cells measured after 48 hrs by SRB assay; assay type: functional
HCT-15 = assay: Growth inhibition of human HCT-15 cells measured after 48 hrs by SRB assay; assay type: functional
HT-29 = assay: Growth inhibition of human HT-29 cells measured after 48 hrs by SRB assay; assay type: functional
KM12 = assay: Growth inhibition of human KM12 cells measured after 48 hrs by SRB assay; assay type: functional
SW-620 = assay: Growth inhibition of human SW-620 cells measured after 48 hrs by SRB assay; assay type: functional
SF-539 = assay: Growth inhibition of human SF-539 cells measured after 48 hrs by SRB assay; assay type: functional
SNB-19 = assay: Growth inhibition of human SNB-19 cells measured after 48 hrs by SRB assay; assay type: functional
SNB-75 = assay: Growth inhibition of human SNB-75 cells measured after 48 hrs by SRB assay; assay type: functional
U-251 = assay: Growth inhibition of human U-251 cells measured after 48 hrs by SRB assay; assay type: functional
LOX IMVI = assay: Growth inhibition of human LOX IMVI cells measured after 48 hrs by SRB assay; assay type: functional
Malme-3M = assay: Growth inhibition of human Malme-3M cells measured after 48 hrs by SRB assay; assay type: functional
M14 = assay: Growth inhibition of human M14 cells measured after 48 hrs by SRB assay; assay type: functional
MDA-MB-435 = assay: Growth inhibition of human MDA-MB-435 cells measured after 48 hrs by SRB assay; assay type: functional
SK-MEL-2 = assay: Growth inhibition of human SK-MEL-2 cells measured after 48 hrs by SRB assay; assay type: functional
SK-MEL-28 = assay: Growth inhibition of human SK-MEL-28 cells measured after 48 hrs by SRB assay; assay type: functional
UACC-257 = assay: Growth inhibition of human UACC-257 cells measured after 48 hrs by SRB assay; assay type: functional
UACC-62 = assay: Growth inhibition of human UACC-62 cells measured after 48 hrs by SRB assay; assay type: functional
IGROV-1 = assay: Growth inhibition of human IGROV-1 cells measured after 48 hrs by SRB assay; assay type: functional
OVCAR-3 = assay: Growth inhibition of human OVCAR-3 cells measured after 48 hrs by SRB assay; assay type: functional
OVCAR-5 = assay: Growth inhibition of human OVCAR-5 cells measured after 48 hrs by SRB assay; assay type: functional
OVCAR-8 = assay: Growth inhibition of human OVCAR-8 cells measured after 48 hrs by SRB assay; assay type: functional
NCI/ADR-RES = assay: Growth inhibition of human NCI/ADR-RES cells measured after 48 hrs by SRB assay; assay type: functional
SK-OV-3 = assay: Growth inhibition of human SK-OV-3 cells measured after 48 hrs by SRB assay; assay type: functional
786-0 = assay: Growth inhibition of human 786-0 cells measured after 48 hrs by SRB assay; assay type: functional
ACHN = assay: Growth inhibition of human ACHN cells measured after 48 hrs by SRB assay; assay type: functional
CAKI-1 = assay: Growth inhibition of human CAKI-1 cells measured after 48 hrs by SRB assay; assay type: functional
RXF 393 = assay: Growth inhibition of human RXF 393 cells measured after 48 hrs by SRB assay; assay type: functional
SN12C = assay: Growth inhibition of human SN12C cells measured after 48 hrs by SRB assay; assay type: functional
TK-10 = assay: Growth inhibition of human TK-10 cells measured after 48 hrs by SRB assay; assay type: functional
UO-31 = assay: Growth inhibition of human UO-31 cells measured after 48 hrs by SRB assay; assay type: functional
DU-145 = assay: Growth inhibition of human DU-145 cells measured after 48 hrs by SRB assay; assay type: functional
MCF7 = assay: Growth inhibition of human MCF7 cells measured after 48 hrs by SRB assay; assay type: functional
MDA-MB-231 = assay: Growth inhibition of human MDA-MB-231 cells measured after 48 hrs by SRB assay; assay type: functional
Hs-578T = assay: Growth inhibition of human Hs-578T cells measured after 48 hrs by SRB assay; assay type: functional
T47D = assay: Growth inhibition of human T47D cells measured after 48 hrs by SRB assay; assay type: functional

SMILES: COc1cc2cc(Oc3ccc(NC(=O)c4cc(C(F)(F)F)cc(C(F)(F)F)c4)cc3)c(C)nc2cc1OC
- GI50 (RPMI-8226): 1.57 µM
- GI50 (HOP-92): 1.82 µM
- GI50 (HCT-116): 1.56 µM
- GI50 (SF-295): 1.64 µM
- GI50 (SK-MEL-5): 2.76 µM
- GI50 (OVCAR-4): 4.53 µM
- GI50 (A498): 1.13 µM
- GI50 (PC-3): 1.66 µM
- GI50 (BT-549): 3.02 µM
- inhibition [1]: < 47%
- inhibition [2]: < 47%
- inhibition [3]: 76.7%

SMILES: Cc1ccc(NC(=O)c2ccc(CN3CCN(C)CC3)cc2)cc1Nc1nccc(-c2cccnc2)n1 [IMATINIB]
- GI50 (CCRF-CEM): 17 µM
- GI50 (HL-60(TB)): 13.5 µM
- GI50 (K562): 0.02 µM
- GI50 (MOLT-4): 5.13 µM
- GI50 (RPMI-8226): 6.05 µM
- GI50 (SR): 7.14 µM
- GI50 (A549): 24.5 µM
- GI50 (EKVX): 26.2 µM
- GI50 (HOP-62): 21.5 µM
- GI50 (HOP-92): 13.3 µM
- GI50 (NCI-H226): 18.1 µM
- GI50 (NCI-H23): 15 µM
- GI50 (NCI-H322M): 22.8 µM
- GI50 (NCI-H460): 16.2 µM
- GI50 (NCI-H522): 16.4 µM
- GI50 (COLO 205): 17.6 µM
- GI50 (HCC 2998): 21.2 µM
- GI50 (HCT-116): 12.6 µM
- GI50 (HCT-15): 19.9 µM
- GI50 (HT-29): 3.97 µM
- GI50 (KM12): 18.8 µM
- GI50 (SW-620): 23.4 µM
- GI50 (SF-295): 19.8 µM
- GI50 (SF-539): 10.6 µM
- GI50 (SNB-19): 38.6 µM
- GI50 (SNB-75): 20.3 µM
- GI50 (U-251): 18 µM
- GI50 (LOX IMVI): 18.1 µM
- GI50 (Malme-3M): 16.3 µM
- GI50 (M14): 19.3 µM
- GI50 (MDA-MB-435): 17.9 µM
- GI50 (SK-MEL-2): 25 µM
- GI50 (SK-MEL-28): 14.6 µM
- GI50 (SK-MEL-5): 12.1 µM
- GI50 (UACC-257): 21.1 µM
- GI50 (UACC-62): 19 µM
- GI50 (IGROV-1): 21.2 µM
- GI50 (OVCAR-3): 34.2 µM
- GI50 (OVCAR-4): 20 µM
- GI50 (OVCAR-5): 0.58 µM
- GI50 (OVCAR-8): 27.7 µM
- GI50 (NCI/ADR-RES): 23 µM
- GI50 (SK-OV-3): 28.9 µM
- GI50 (786-0): 16 µM
- GI50 (A498): 22 µM
- GI50 (ACHN): 25.2 µM
- GI50 (CAKI-1): 34 µM
- GI50 (RXF 393): 15.1 µM
- GI50 (SN12C): 33.2 µM
- GI50 (TK-10): 26.9 µM
- GI50 (UO-31): 22.3 µM
- GI50 (PC-3): 21.4 µM
- GI50 (DU-145): 18.8 µM
- GI50 (MCF7): 18.2 µM
- GI50 (MDA-MB-231): 18.7 µM
- GI50 (Hs-578T): 14.6 µM
- GI50 (BT-549): 16.1 µM
- GI50 (T47D): 19.9 µM
